Tests used:
SOD1 G93A mice = assay: SOD1 G93A mouse model of ALS, motor symptoms and neuroscore; format: in vivo; details: 50 mg/kg daily oral in gel from 21 days post-natal
Text: Animals. The ALS mouse model is the SOD1 G93A (Gurney et al. Science 1994). Mutations in the SOD1 gene represent about 20% of the mutations in human familiar forms of ALS. Mice with multiple human transgenes with the G93A mutation in the SOD1 gene develop a progressive muscle paralysis and a loss of spinal motor neurons as in human patients. We used the high expressor lines (Jackson Labs #002726 B6SJL-Tg(SOD1*G93A)1 Gur/J) that contains at least 15 copies of the human transgene. SOD1 G93A males are crossed with B6/SJL females (Janvier Labs #SH-B6SJL-F1; hybrid model B6SJLF1/JRj). Genotyping allows us to identify the transgenic animals in the litter.
Symptoms progression is assessed using a neuroscore grid as in Hatzipetros et al. JoVE 2015. Mice are euthanized when they are transitioning from neuroscore 2 to neuroscore 3 (full paralysis of one hindlimb). This transition happens about 120-130 days post-natal in our breeding conditions and in the absence of the 2,4-D treatment. Non transgenic littermates are used as control animals.
Chronic administration of 2,4-D in mice. […] Daily delivery of the drug for a long time period (about 100 days) is not compatible with IP injections for ethics considerations and also because of the infection risk. We then rely on oral administration in a gel using a method modified from Lei Zhang, Star Protocol 2021. Briefly, the gel is produced by mixing alimentary gelatin (8%, Vahiné) in a 2% sucralose solution (Myprotein, zero calory, no flavor) and by heating this mixture at 60° C. for 20-30 minutes until clarification. An artificial flavor, for instance “cheese flavor” (Arôme Alimentaire Emmental 58 ml Cuisineaddict), 2 microliters/milliliter), may be added to this preparation along with some kibble grinds to powder (the same kibble as the one used in the house facility for ordinary diet) for improving palatability. This mixture is then aliquoted in individual daily portions of 315 microliters. 1 to 2 mg of 2,4-D (depending on the mouse body weight, 50 mg of 2,4-D per kg of mouse body weight) is added to each portion while the mixture is still warm (2,4-D is not added in the vehicle portions given to untreated animals). This mixture solidifies in a jelly form upon cooling. The gel can be kept in a fridge (4° C.) for 6 days. We usually have 4 mice (males or females) per cage. To feed the mice with 2,4-D we remove the ordinary kibbles (sometime 4 hours before) and we physically isolated each mouse in a corner of the cage with a plexiglass cross placed in the cage to separate four compartments. One portion jelly is placed at the bottom of each compartment until the mouse has eaten it. In the case the mouse has not eaten the full portion after 3 hours, we evaluate how much was taken by the mouse. […]

[1] = test system: TPA-induced psoriasis-like skin hyperplasia; assay: TPA-induced psoriasis-like skin hyperplasia in BALB/c mice; format: in vivo, mouse
Method: Induction of TPA-induced psoriasis-like skin hyperplasia in mice treated with oral 2,4-D. Forty mice (BALB/c) were purchased from Guangdong Experimental Animal Center. All experiments were approved by the animal ethics committee of Guangzhou University of Chinese Medicine according to Chinese legislation on animal experiments. Mice (n=30) at 8 to 11 weeks of age received a daily topical dose of 15 μg TPA (Sigma) in 200 μl of acetone on the shaved back for day 1 and 4. This dose was empirically determined to cause the most optimal and reproducible skin inflammation in mice (data not shown). Control mice (n=10) were treated similarly with a control vehicle cream (Sigma). See FIG. 9 for an illustrative example of a mouse receiving topical TPA as compared to a control mouse receiving a control vehicle cream. Of the 30 mice that received topical TPA, 20 mice were treated orally with 0.2 mg (n=10) or 1 mg (n=10) 2,4-D daily until day 6. The remaining 10 untreated TPA mice served as a disease control. On day 7, dorsal skin was photographed and fixed in 10% formalin and stained with H&E (Haemotoxylin and Eosin). Epidermal thickness was quantified by Image J software.
Statistical analysis. Data are presented as the mean±SD for the in vivo animal study. Statistical analysis was performed using Student's t-test (paired 2-sample testing).

IL-23 = IL-23 production (ELISA) in LPS-stimulated THP-1 cells, 2,4-D versus other chalcones, Example 2; format: cell-based, human; details: LPS-stimulated THP-1
Text: Molecules tested. Natural 2,4-D, isolated and purified from Chloranthus spicatus (purity HPLC≥98%, Cat. No.: 129742-43-2), was purchased from BOC Science (Shirley, NY). Synthetic 2,4-D (purity HPLC≥98%) was obtained from YIWEI Biotech (Shanghai, China). 2′-hydroxychalcone (2′-HC, purity HPLC≥98%, Cat. No.: 42224-53-3), 4-hydroxychlcone (4-HC, purity HPLC≥98%, Cat. No.: 20426-12-4), 2′,2-dihydroxychalcone (2′,2-DHC, purity HPLC≥98%, Cat. No.: IDF00045_ALDRICH), 2′,3-dihydroxychalcone (2′,3-DHC, purity HPLC≥98%, Cat No.: IDF00047_ALDRICH), 2′,4-dihydroxychalcone (2′,4-DHC, purity HPLC≥98%, Cat. No.: PH011685_ALDRICH), 2′,5′-dihydroxychalcone (2′,5′-DHC, purity HPLC≥98%, No.: IDF00046-1G), and 2′,4′,4-trihydroxychalcone (2′,4′4-THC, purity HPLC≥98%, No.: 38986_SIAL) were purchased from Sigma. 2′,4′-dihydroxychalcone (2′,4′-DHC, purity HPLC≥98%, Cat. No. AB151736) was purchased from abcr GmbH (Karlsruhe, Germany). Isobavachalcone (IBC), 4′-hydroxy-2′6′-dimethoxychalcone (HMC), 2-trifluoromethyl-2′-methoxychalcone (TFM) and Hydroxysafflor yellow A (HYA) were also tested.
Cell culture. THP-1 cells were cultured in RPMI 1640 culture medium (Gibco) supplemented with 10% fetal bovine serum (FBS; Gibco, UK.), 0.05 mM 2-mercaptoethanol, and 1% penicillin/streptomycin. Cells were used in exponential growth phase, with culture medium being replaced with fresh medium 1 day prior to the experiment. The following day, THP-1 cells were plated into 24-well culture plates with a cell density about 800,000 cells/mL and 2 mL per well. 10 ng/mL LPS was used to stimulate the THP-1 cells. RPMI 1640 medium containing 10% FBS and 1% P/S was used as a normal control (NC). 10 mM stock solutions of compounds in DMSO were diluted to 20 μM with complete culture medium just before use. Experiments were performed in quadruplicate.
Enzyme linked immune-sorbent assay (ELISA). At 24 hours, after centrifugation at 300 g for 10 min., 0.5 mL of supernatant was collected and stored at −80° C. until use. IL-23 levels were determined in culture supernatants as described in Example 1.

## COc1cc(O)c(OC)c(O)c1C(=O)/C=C/c1ccccc1 [2,4-D, 2′,4′-dihydroxy-3′,6′-dimethoxychalcone]
SOD1 G93A mice
  neuroscore progression (from 0 to 3): tends to slow down
  time at which neuroscore 3 is reached (survival time): tends to be delayed
  time at which the axial tonus is lost, compared with vehicle: significantly extends
  time at which the full hindlimb extension is lost, compared with vehicle: significantly extends
[1]; 0.2 mg daily oral
  thickness of back skin compared with normal skin of control mice: significantly higher
  thickness of back skin hyperplasia compared with untreated mice: significantly lower
[1]; 1 mg daily oral
  thickness of back skin compared with normal skin of control mice: similar
  thickness of back skin hyperplasia compared with untreated mice: significantly lower
[1]; 0.2 or 1 mg daily oral
  dorsal skin compared to mice receiving TPA only: improved in a dose-dependent manner
IL-23
  inhibition of IL-23, superiority over remaining compounds: 7,5- to 18 fold

— patent US20240335395A1, “COMPOSITIONS AND METHODS FOR PREVENTING AND/OR TREATING DISEASE ASSOCIATED WITH IL-23 EXPRESSION” (ALLSPIM, priority 2021, published 2024)
